Measurements as given in PMC12867150, “A fungi-derived cyclic peptide enhances Th9-mediated antitumor immunity by targeting ZAP70 and SREBP1” (The Journal of Clinical Investigation, 2025).
“And” between values parts separate entries of the source, which are not always exact repeats. Identical values can stand only once.

Columns and labels:
endogenous CD4+ T cells = test: Cytokines and granzyme B/perforin in endogenous CD4+ T cells (Figure 3I, S4G-I); assay type: in vivo, mouse; design: TNF-α expression / IFN-γ expression / Expression of IFN-g of endogenous CD4⁺ T cells in tumor / Expression of TNF-α of endogenous CD4⁺ T cells in tumor: unit not given here; settings: for Expression of IFN-g of endogenous CD4⁺ T cells in tumor: Supplemental Figure 4G; for Expression of TNF-α of endogenous CD4⁺ T cells in tumor: Supplemental Figure 4H; for Expression of GzmB+Perforin+ of endogenous CD4⁺ T cells in tumor: Supplemental Figure 4I
Procedure: C57BL/6 mice were subcutaneously injected with 5 × 10^5 B16-OVA melanoma cells. Five days after tumor implantation, mice received an intravenous infusion of 2 × 10^6 in vitro–differentiated Th9 cells (cultured for 5 days), which were derived from OT-II CD45.1 donor mice, accompanied by 4 × 10^5 OVA peptide–pulsed DCs via the tail vein. To enhance T cell engraftment and facilitate lymphodepletion, a single intraperitoneal injection of cyclophosphamide (200 mg/kg, Sigma, catalog C0768) was administered 1 day prior to T cell transfer. Mice were euthanized at designated time points for the collection and analysis of spleens, tumor-draining lymph nodes, and tumor tissues.
Details regarding staining panels (human and mouse), reagents (including clones and catalog numbers), acquisition settings, compensation/controls, and analysis procedures are provided in Supplemental Methods.
BioLegend, Cat. No. 422301 or Mouse TruStain FcX™, BioLegend, Cat. No. 101319) for 10 minutes at 4°C. For surface marker detection, cells were stained with fluorochrome-conjugated monoclonal antibodies in 96-well V-bottom plates and incubated on ice for 30 minutes. After staining, cells were washed twice and resuspended in FACS buffer for analysis.
Prior to intracellular cytokine staining, cells were restimulated for 4 hours with PMA (Absin, Cat. No. abs9107), ionomycin (Sigma-Aldrich, Cat. No. I0634), and brefeldin A (MedChemExpress, Cat. No. HY-16592). For intracellular cytokine staining, cells were first surface-stained as described above, then fixed and permeabilized using the BD Cytofix/Cytoperm™ kit (BD Biosciences, Cat. No. 554714) according to the manufacturer ’s protocol. Intracellular proteins were stained with directly conjugated antibodies targeting IL-9, IL-17a, IL-4, IFN-γ, TNF-α, FOXP3, p-ZAP70, Perforin, and […]
Antibodies used for mouse samples included those against IL-9 (PE, clone RM9A4, Biolegend, Cat. No. 514104), IFN-γ (PE, clone XMG1.2, Biolegend, Cat. No.
Cat. No. 103138), CD4 (APC/Cy7, clone E-AB-F1353UJ, Elabscience, Cat. No.
AF18028), CD8α (PerCP/Cy5.5, clone E-AB-F1104UJ, Elabscience, Cat. No. […]
clone E-AB-F1187UH, Elabscience, Cat. No. AF19854), TNF-α (BV421, clone MP6-XT22, Biolegend, Cat. No. 506328), FOXP3 (PE, clone FJK-16s, eBioscience, Cat. No.
Perforin (APC, clone S16009A, Biolegend, Cat. No. 154303) and Granzyme B (APC, clone QA16A02, Biolegend, Cat. No. 372203). For human samples, antibodies against CD4 (PerCP/Cy5.5, clone RPA-T4, Biolegend, Cat. No. 300530; APC/Cy7, clone OKT4, Biolegend, Cat. No. 317418), CD19 (APC/Cy7, clone SJ25C1, Biolegend, Cat.
No. 363009), IFN-γ (PE, clone 4S.B3, Biolegend, Cat. No. 502509), IL-9 (PE, clone

Th9 cells = test: IL-9+ Th9 cells transduced with MIGR1 or SREBP1 vector (S8K-L); assay type: cell-based, mouse; settings: for IL-9 gate number: representative flow plot, Figure S8K; for IL-9 expression of Th9 cells: Supplemental Figure 8L
Procedure: For murine T cell transduction, MIGR1-based retroviral vector encoding Srebf1 was used. HEK293T cells were transfected with these constructs using Lipofectamine 3000 (Thermo Fisher Scientific) to produce viral particles. Supernatants were collected between 48 and 72 hours after transfection, filtered through a 0.45 μm membrane, and stored at –80°C. Naive murine CD4^+ T cells were activated with plate-bound anti-CD3 (2 μg/mL, clone 17A2, BioXCell) and soluble anti-CD28 (1 μg/mL, clone 37.51, BioXCell) stimulation in the presence of subset-specific polarizing cytokines and then transduced with viral supernatant supplemented with polybrene (10 μg/mL). […]
Ctrl MIGR1EpACtrl SREBP1EpA
Figure S8. […]
(K and L) Flow-cytometric analysis of IL-9 expression in Th9 cells transduced with either control (MIGR1) or SREBP1- […]
overexpressing vectors, with or without EpA treatment, showing representative plots (K) and quantification of IL-9⁺ cells (L) (n = 3). […]
(n = 3). Statistical analysis was performed using one-way ANOVA followed by Tukey’s post hoc test (G and H, J, L, N). ns, not significant. Repeated data are presented as mean ± SEM. *p < 0.05, **p < 0.01, ***p < 0.001, ****p < 0.0001.

[1] = endogenous CD4+, spleen, individual mice, n = 4

Q: Which results are given for anteiso-C15 Leu7 surfactin [EpA]?
A: GzmB+ PRF1+ gate number (endogenous CD4+ T cells; CD4+ T cells in tumors, representative flow plot, Figure S4I): 5.26; GzmB and Perforin expression (endogenous CD4+ T cells; [1]): 8.38 and 8.7 and 5.23 and 4.52; IFN-γ expression (endogenous CD4+ T cells; [1]): 10.3 and 15 and 14.6 and 10.5; TNF-α expression (endogenous CD4+ T cells; [1]): 13.3 and 10.2 and 13.4 and 20.6; TNF-α expression of CD4+ T cells (endogenous CD4+ T cells; spleen, result in words): remained unchanged; granzyme B+ perforin+ CD4+ T cells (endogenous CD4+ T cells; spleen, result in words): pronounced increase; Expression of IFN-g of endogenous CD4⁺ T cells in tumor (endogenous CD4+ T cells; replicate 1): 193; Expression of IFN-g of endogenous CD4⁺ T cells in tumor (endogenous CD4+ T cells; replicate 2): 141; Expression of IFN-g of endogenous CD4⁺ T cells in tumor (endogenous CD4+ T cells; replicate 3): 342; Expression of IFN-g of endogenous CD4⁺ T cells in tumor (endogenous CD4+ T cells; replicate 4): 291; Expression of TNF-α of endogenous CD4⁺ T cells in tumor (endogenous CD4+ T cells; replicate 1): 483; Expression of TNF-α of endogenous CD4⁺ T cells in tumor (endogenous CD4+ T cells; replicate 2): 294; Expression of TNF-α of endogenous CD4⁺ T cells in tumor (endogenous CD4+ T cells; replicate 3): 665; Expression of TNF-α of endogenous CD4⁺ T cells in tumor (endogenous CD4+ T cells; replicate 4): 542; Expression of GzmB+Perforin+ of endogenous CD4⁺ T cells in tumor (endogenous CD4+ T cells; replicate 1): 5.25; Expression of GzmB+Perforin+ of endogenous CD4⁺ T cells in tumor (endogenous CD4+ T cells; replicate 2): 5.18; Expression of GzmB+Perforin+ of endogenous CD4⁺ T cells in tumor (endogenous CD4+ T cells; replicate 3): 5.26; Expression of GzmB+Perforin+ of endogenous CD4⁺ T cells in tumor (endogenous CD4+ T cells; replicate 4): 9.14; TNF-α expression of CD4+ T cells (endogenous CD4+ T cells; tumors, result in words): upregulated TNF-α expression; IL-9 gate number (Th9 cells; MIGR1 control vector): 69.8; IL-9 expression of Th9 cells (Th9 cells; MigR1, replicate 1): 69.8; IL-9 expression of Th9 cells (Th9 cells; MigR1, replicate 2): 68.8; IL-9 expression of Th9 cells (Th9 cells; MigR1, replicate 3): 68.6; IL-9 gate number (Th9 cells; SREBP1-overexpressing vector): 50.3; IL-9 expression of Th9 cells (Th9 cells; SREBP1, replicate 1): 50.3; IL-9 expression of Th9 cells (Th9 cells; SREBP1, replicate 2): 48.8; IL-9 expression of Th9 cells (Th9 cells; SREBP1, replicate 3): 60.7; EpA-induced IL-9 increase (protein) upon SREBP1 overexpression (Th9 cells; result in words): markedly suppressed
